The values below come from patent US20260248731A1, “NON-VIRAL DELIVERY OF SMALL MOLECULE THERAPEUTICS” (BATTELLE MEMORIAL INSTITUTE, priority 2022, published 2026).

Series [1] has as its system RAW264.7 cells. The experiment in a line: Cytokine release from RAW264.7 cells, multiplex cytometric bead array. As to conditions: 24 hours after treatment. The class given is cell-based, murine. The protocol:
Talabostat mesylate (MedChemExpress; TLBST) was reconstituted to 10 mg/mL in deionized water and stored frozen. Prior to use, TLBST was thawed, incubated at 37° C. for 20 mins, and sonicated for 10 minutes. TLBST was serially diluted in pH 7.4, 40 mM Tris, 10 mM MgCl2 buffer to 5 mg/mL and 2.5 mg/mL. Free talabostat controls were prepared in triplicate by diluting and serially diluting the 10, 5, and 2.5 mg/mL TLBST stock in pH 7.4, 40 mM Tris-HCl, 10 mM MgCl2 buffer to generate free TLBST at 1.25, 0.625, and 0.3125 mg/mL. […]
RAW264.7 cells were seeded at 100,000 cells per well of a 96-well plate. […] Twenty-four hours following stimulation, cell culture supernatants were harvested and stored frozen until quantification of lactate dehydrogenase (LDH) by colorimetric enzymatic activity assay, and interleukin 1β (IL-1β), interleukin 18 (IL-18), and interferon β (IFNβ) by multiplex cytometric bead array assay. Percentage LDH release was calculated relative to the maximum LDH released from a lysed cells control. […] MTT signal derived from stimulated cells was quantified by colorimetric enzymatic activity assay. Percentage viability was calculated relative to the MTT signal measured in an untreated cells control. […]

The test system of series [2] is macrophage-differentiated THP-1 cells. As to conditions: background statement; cited from earlier work.
Series [3] relates to murine cancer models. As to conditions: systemic administration; cited from earlier work.
Series [4] has as its system macrophage-differentiated THP-1 cells. As to conditions: background statement; cited from earlier work. The source holds these as a separate data set.

On to Talabostat mesylate [Free TLBST], for which the “IFNβ in the supernatant” value in series [1] is reported as “but not free TLBST is associated with IFNβ secretion”. Moreover, in series [2], the IL-1β release entry is “exhibit both cytotoxicity and IL-1β release”. In addition, the “protection in murine cancer models” value in series [3] is “potent T and NK cell-dependent protection”. Besides, the cytotoxicity entry in series [4] is “exhibit both cytotoxicity and IL-1β release”.
